Measurements: ChEMBL document CHEMBL1201862, “PubChem BioAssay data set” (2004)
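Briefly, cells in 96-well plates were exposed to five compound concentrations for 48 h, and endpoints were estimated by linear interpolation. GI50 = concentration required for 50% inhibition of growth.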 Calls of active or inactive are those of the source. No stated cut-off is given here; in the data, active = GI50 up to about 1.1 µM and inactive = higher.

Legend:
Experiment in all cases: NCI anticancer screen, dose series, 48 h
[1] = system: A498
[2] = system: A549
[3] = system: ACHN
[4] = system: CAKI-1
[5] = system: CCRF-CEM
[6] = system: COLO 205
[7] = system: DLD-1
[8] = system: DMS-114
[9] = system: DMS-273
[10] = system: EKVX
[11] = system: HCC 2998
[12] = system: HCT-116
[13] = system: HCT-15
[14] = system: HL-60
[15] = system: HOP-62
[16] = system: HOP-92
[17] = system: HT-29
[18] = system: IGROV-1
[19] = system: K562
[20] = system: KM-20L2
[21] = system: KM12
[22] = system: LOX IMVI
[23] = system: LXFL 529
[24] = system: M14
[25] = system: M19-MEL
[26] = system: MOLT-4
[27] = system: NCI-H226
[28] = system: NCI-H23
[29] = system: NCI-H460
[30] = system: NCI-H522
[31] = system: OVCAR-4
[32] = system: OVCAR-5
[33] = system: OVCAR-8
[34] = system: RPMI-8226
[35] = system: RXF 393
[36] = system: RXF 631
[37] = system: SF-268
[38] = system: SF-295
[39] = system: SF-539
[40] = system: SK-MEL-28
[41] = system: SK-MEL-2
[42] = system: SK-MEL-5
[43] = system: SK-OV-3
[44] = system: SN12C
[45] = system: SNB-19
[46] = system: SNB-75
[47] = system: SNB-78
[48] = system: SR
[49] = system: SW-620
[50] = system: TK-10
[51] = system: U-251
[52] = system: UACC-257
[53] = system: UACC-62
[54] = system: UO-31
[55] = system: 786-0
[56] = system: Malme-3M
[57] = system: OVCAR-3
[58] = system: XF498

Measured: GI50

O=C(Nc1ccc([N+](=O)[O-])cc1[N+](=O)[O-])C(=O)C(C(=O)c1ccc2ccccc2c1)C1OC(=O)c2ccccc21 (stereo not drawn)
inactive: [1] 17.6 µM | [2] 25.5 µM | [3] 25.6 µM | [4] 21.7 µM | [5] 9.51 µM | [6] 15.8 µM | [7] 27.5 µM | [8] 17.9 µM | [9] 10.2 µM | [10] 15.5 µM | [11] 12.4 µM | [12] 17.6 µM | [14] 12.3 µM | [15] 22.4 µM | [16] 17.8 µM | [17] 16.7 µM | [18] 19.8 µM | [19] 14 µM | [20] 25.1 µM | [21] 22.4 µM | [22] 16.7 µM | [23] 10.5 µM | [24] 15.9 µM | [25] 12.2 µM | [26] 2.95 µM | [27] 2.69 µM | [28] 7.29 µM | [29] 13.2 µM | [30] 10.4 µM | [31] 12.8 µM | [32] 20.2 µM | [33] 10 µM | [34] 9.44 µM | [35] 12 µM | [36] 16.6 µM | [37] 8.89 µM | [38] 13.5 µM | [39] 4.5 µM | [40] 20 µM | [41] 22.3 µM | [42] 15.3 µM | [43] 13.5 µM | [44] 17.8 µM | [45] 11.5 µM | [46] 14 µM | [47] 21.4 µM | [49] 13.2 µM | [50] 24.1 µM | [51] 4.33 µM | [52] 24.4 µM | [53] 16.6 µM | [54] 14 µM
15.9 µM: [13]
active: [48] 0.817 µM

COc1ccc(OC)c(NC(=O)C(=O)CC(=O)c2sc(-n3nc(-c4ccccc4)cc3-c3ccccc3)nc2C)c1
inactive: [55] > 100 µM | [1] > 100 µM | [2] > 100 µM | [4] > 100 µM | [5] > 100 µM | [6] > 100 µM | [7] > 100 µM | [8] > 100 µM | [9] > 100 µM | [11] > 100 µM | [12] > 100 µM | [14] > 100 µM | [15] > 100 µM | [17] > 100 µM | [18] > 100 µM | [19] > 100 µM | [20] > 100 µM | [21] > 100 µM | [22] > 100 µM | [23] > 100 µM | [24] > 100 µM | [25] > 100 µM | [26] > 100 µM | [56] > 100 µM | [27] > 100 µM | [28] > 100 µM | [29] > 100 µM | [30] > 100 µM | [57] > 100 µM | [31] > 100 µM | [32] > 100 µM | [33] > 100 µM | [34] > 100 µM | [35] > 100 µM | [36] > 100 µM | [38] > 100 µM | [39] > 100 µM | [41] > 100 µM | [43] > 100 µM | [44] > 100 µM | [45] > 100 µM | [46] > 100 µM | [47] > 100 µM | [48] 27.7 µM | [49] > 100 µM | [50] > 100 µM | [51] > 100 µM | [52] > 100 µM | [53] > 100 µM | [54] > 100 µM
> 100 µM: [13]

CC(C)C1CN(C(=O)OCc2ccccc2)C2N1C(=O)C2(C)OCc1ccccc1 (stereo not drawn)
44.8 µM: [13]
inactive: [55] 49.3 µM | [1] 26.8 µM | [2] 29.2 µM | [3] 33 µM | [5] 28.1 µM | [6] 19.1 µM | [7] 36 µM | [8] 31.3 µM | [9] 35.3 µM | [10] 34 µM | [11] 36.4 µM | [12] 37.6 µM | [14] 22.6 µM | [15] 94.4 µM | [17] 42.2 µM | [18] 35.9 µM | [19] 34.8 µM | [20] 43.9 µM | [22] 27.2 µM | [23] 28.7 µM | [24] 36.1 µM | [25] 32.4 µM | [26] 24.4 µM | [56] 31.8 µM | [27] 22 µM | [28] 24.5 µM | [29] 21.6 µM | [57] > 100 µM | [31] 41.9 µM | [33] 45.4 µM | [34] 21.4 µM | [35] 21.4 µM | [36] 40.6 µM | [37] 44.6 µM | [38] 34.8 µM | [39] 56 µM | [40] > 100 µM | [41] 28.2 µM | [42] 16 µM | [44] 48.6 µM | [45] 46.7 µM | [46] 16.7 µM | [48] 29.2 µM | [49] 40.9 µM | [50] 42.9 µM | [51] 41.7 µM | [52] 28.2 µM | [53] 25.1 µM | [54] 20.3 µM | [58] 11.7 µM

CS/C(=N/C(=O)c1ccccc1)SCCS/C(=N\C(=O)c1ccccc1)SC
> 100 µM: [13]
inactive: [55] > 100 µM | [1] > 100 µM | [2] > 100 µM | [3] > 100 µM | [4] > 100 µM | [5] > 100 µM | [6] > 100 µM | [7] > 100 µM | [8] 90.4 µM | [9] > 100 µM | [10] > 100 µM | [11] > 100 µM | [12] > 100 µM | [14] > 100 µM | [15] 62.2 µM | [16] 20 µM | [17] > 100 µM | [18] > 100 µM | [19] > 100 µM | [20] > 100 µM | [21] > 100 µM | [22] > 100 µM | [23] > 100 µM | [24] > 100 µM | [25] > 100 µM | [26] > 100 µM | [56] > 100 µM | [27] > 100 µM | [28] > 100 µM | [29] > 100 µM | [30] 69.2 µM | [57] 68.5 µM | [31] 25 µM | [32] > 100 µM | [33] > 100 µM | [34] > 100 µM | [35] 73.6 µM | [36] > 100 µM | [37] > 100 µM | [38] > 100 µM | [39] 65.5 µM | [40] > 100 µM | [41] > 100 µM | [42] > 100 µM | [44] > 100 µM | [45] > 100 µM | [46] 33.8 µM | [47] 66.8 µM | [49] > 100 µM | [50] > 100 µM | [51] > 100 µM | [52] > 100 µM | [53] > 100 µM | [54] > 100 µM | [58] > 100 µM

CC(C)c1cccc(C(C)C)c1N1C(=O)C(=O)C(c2nc3ccccc3o2)C(=O)C1=O
inactive: [55] 14.4 µM | [1] > 100 µM | [2] > 100 µM | [3] > 100 µM | [4] 40.5 µM | [5] 8.95 µM | [6] 32.8 µM | [7] 31.6 µM | [8] 24.5 µM | [9] 68.2 µM | [10] > 100 µM | [11] 24.3 µM | [12] 25.8 µM | [14] 30.3 µM | [15] > 100 µM | [16] 33.3 µM | [17] 30.3 µM | [18] > 100 µM | [19] 28.2 µM | [20] 79.1 µM | [21] > 100 µM | [22] > 100 µM | [23] 42.2 µM | [24] 55.8 µM | [25] 63.4 µM | [56] 91.4 µM | [27] 19.2 µM | [28] 29.6 µM | [29] > 100 µM | [30] 19.5 µM | [57] 33.7 µM | [31] 78.2 µM | [32] > 100 µM | [33] > 100 µM | [34] 35.4 µM | [35] 92.3 µM | [36] > 100 µM | [37] 47.2 µM | [38] > 100 µM | [39] > 100 µM | [40] 32.7 µM | [41] > 100 µM | [42] 38.5 µM | [43] > 100 µM | [44] > 100 µM | [45] > 100 µM | [46] 26.2 µM | [47] > 100 µM | [49] 48.1 µM | [50] > 100 µM | [51] > 100 µM | [52] > 100 µM | [53] 71.6 µM | [54] 94 µM | [58] 38.5 µM
49.7 µM: [13]
